Measured values from ChEMBL document CHEMBL3108691, “Structural investigation of cycloheptathiophene-3-carboxamide derivatives targeting influenza virus polymerase assembly” (J Med Chem, 2013).
pEC50, pIC50: −log10 of the molar value.

How the values were obtained:
[1] = Cytotoxicity against MDCK cells assessed as cell viability after 48 hrs by MTT assay; format: cell-based, Canis lupus familiaris; settings: dog
[2] = Cytotoxicity against HEK293 cells assessed as cell viability after 24 hrs by MTT assay; format: cell-based; settings: human
[3] = tested on: Influenza A virus; format: functional, organism-based; settings: A/Puerto Rico/8/1934(H1N1), MDCK, 48 h
[4] = target: PA/PB1 (Influenza A virus (A/Puerto Rico/8/1934(H1N1)), UniProt P03431+P03433); test: Inhibition of Influenza A virus (A/Puerto Rico/8/34(H1N1)) His6-tagged PA (239 to 716) interaction with GST-tagged PB1 (1 to 25) expressed in Escherichia coli BL21 (DE3) by ELISA
[5] = tested on: Influenza A virus; format: functional, organism-based; settings: A/Puerto Rico/8/1934(H1N1), MDCK, 12 h
[6] = cells; settings: Influenza A virus, HEK293, 24 h
[7] = tested on: Influenza A virus; format: functional, organism-based, Influenza A virus (A/Wisconsin/67/2005(H3N2)); settings: MDCK, 48 h
[8] = tested on: Influenza A virus; format: functional, organism-based; settings: A/Padova/253/2011(H1N1), MDCK, 48 h
[9] = tested on: Influenza A virus; format: functional, organism-based; settings: A/Padova/72/2011(H1N1), MDCK, 48 h
[10] = tested on: Influenza A virus; format: functional, organism-based; settings: A/Padova/30/2011(H1N1), MDCK, 48 h
[11] = tested on: Influenza B virus; test: microbe, parasite or virus in culture; settings: B/Lee/1940, MDCK, 48 h

SMILES | CC50 at 48 h [1] [µM] | CC50 at 24 h [2] [µM] | pEC50 [3] | pIC50 [4] | further results
O=C(Nc1sc2c(c1C(=O)O)CCCCC2)c1ccccc1F | > 250 | > 250 | 4.12 | 3.70 | 
NC(=O)c1c(NC(=O)c2ccccc2F)sc2c1CCCC2 | 118 | 31 | < 4.00 | < 3.70 | 
O=C(Nc1sc2c(c1C(=O)O)CCC2)c1ccccc1F | > 250 | > 250 | 4.11 | 3.80 | 
CCOC(=O)c1c(NC(=O)c2ccc(OC)cc2)sc2c1CCCCC2 | > 250 | > 250 | 4.02 | < 3.70 | 
NC(=O)c1c(NC(=O)c2ccccc2F)sc2c1CCC2 |  |  |  | < 3.70 | 
CCOC(=O)c1c(NC(=O)c2ccccc2F)sc2c1CCCCC2 | > 250 | > 250 | 4.11 | 3.70 | 
CCOC(=O)c1c(NC(=O)c2ccc(F)cc2)sc2c1CCCCC2 | > 250 | > 250 | 4.04 | < 3.70 | 
CCOC(=O)c1c(NC(=O)c2ccccc2Cl)sc2c1CCCCC2 | > 250 | > 250 | 4.03 | < 3.70 | 
CCOC(=O)c1c(NC(=O)c2ccc(Cl)cc2)sc2c1CCCCC2 | > 250 | > 250 | 4.05 | < 3.70 | 
O=C(Nc1sc2c(c1C(=O)O)CCCCC2)c1ccc(F)cc1 |  |  |  | < 3.70 | 
O=C(Nc1sc2c(c1C(=O)O)CCCCC2)c1ccccc1Cl |  |  |  | < 3.70 | 
O=C(Nc1sc2c(c1C(=O)O)CCCCC2)c1ccc(Cl)cc1 |  |  |  | < 3.70 | 
COc1ccc(C(=O)Nc2sc3c(c2C(=O)O)CCCCC3)cc1 |  |  |  | < 3.70 | 
O=C(Nc1sc2c(c1C(=O)Nc1ccccn1)CCCC2)c1ccccc1F |  |  |  | < 3.70 | 
O=C(Nc1sc2c(c1C(=O)Nc1ccccn1)CCC2)c1ccccc1F |  |  |  | < 3.70 | 
CCOC(=O)c1c(NC(=O)c2ccccc2F)sc2c1CCC2 | > 250 | > 250 | < 4.00 | < 3.70 | 
CSCC[C@H](N)C(=O)N[C@@H](CC(=O)O)C(=O)N[C@H](C(=O)N[C@@H](CC(N)=O)C(=O)N1CCC[C@H]1C(=O)N[C@H](C(=O)N[C@@H](CC(C)C)C(=O)N[C@@H](CC(C)C)C(=O)N[C@@H](Cc1ccccc1)C(=O)N[C@@H](CC(C)C)C(=O)N[C@@H](CCCCN)C(=O)N[C@H](C(=O)N1CCC[C@H]1C(=O)N[C@@H](C)C(=O)N[C@@H](CCC(N)=O)C(=O)O)C(C)C)[C@@H](C)O)C(C)C | > 100 | > 100 | 4.40 | 4.46 | 
O=C(Nc1sc2c(c1C(=O)Nc1ccccn1)CCCCC2)c1ccccc1 |  |  |  | 4.06 | 
O=C(Nc1sc2c(c1C(=O)Nc1ccccn1)CCCCC2)c1cccc(F)c1 |  |  |  | < 3.70 | 

SMILES | CC50 at 48 h [1] [µM] | CC50 at 24 h [2] [µM] | pEC50 [3] | pIC50 [4] | further results
O=C(Nc1sc2c(c1C(=O)Nc1ccccn1)CCCCC2)c1ccc(F)cc1 |  |  |  | 4.00 | 
O=C(Nc1sc2c(c1C(=O)Nc1ccccn1)CCCCC2)c1ccccc1Cl |  |  |  | 3.87 | 
O=C(Nc1sc2c(c1C(=O)Nc1ccccn1)CCCCC2)c1ccc(Cl)cc1 |  |  |  | 4.49 | 
O=C(Nc1sc2c(c1C(=O)Nc1ccccn1)CCCCC2)c1ccc(F)cc1Cl |  |  |  | < 3.70 | 
O=C(Nc1sc2c(c1C(=O)Nc1ccccn1)CCCCC2)c1ccc(Cl)cc1Cl |  |  |  | < 3.70 | 
O=C(Nc1ccccn1)c1c(NC(=O)C2CCCCC2)sc2c1CCCCC2 |  |  |  | < 3.70 | 
O=C(Cc1ccc(F)cc1)Nc1sc2c(c1C(=O)Nc1ccccn1)CCCCC2 | > 250 | 250 | 4.80 | < 3.70 | 
O=C(Cc1ccc(Cl)cc1)Nc1sc2c(c1C(=O)Nc1ccccn1)CCCCC2 | > 250 | > 250 | 4.72 | < 3.70 | 
O=C(Cc1ccccc1)Nc1sc2c(c1C(=O)Nc1ccccn1)CCCCC2 | > 250 | 220 | 4.72 | < 3.70 | 
O=C(CCc1ccc(F)cc1)Nc1sc2c(c1C(=O)Nc1ccccn1)CCCCC2 |  |  |  | < 3.70 | 
O=C(CC1CCCCC1)Nc1sc2c(c1C(=O)Nc1ccccn1)CCCCC2 |  |  |  | < 3.70 | 
O=C(CCc1ccc(Cl)cc1)Nc1sc2c(c1C(=O)Nc1ccccn1)CCCCC2 |  |  |  | < 3.70 | 
O=C(CCc1ccccc1)Nc1sc2c(c1C(=O)Nc1ccccn1)CCCCC2 |  |  |  | < 3.70 | 
O=C(Cc1ccc2ncccc2c1)Nc1sc2c(c1C(=O)Nc1ccccn1)CCCCC2 | > 250 | > 250 | 4.24 | 4.32 | 
COc1c(CC(=O)Nc2sc3c(c2C(=O)Nc2ccccn2)CCCCC3)sc2ccccc12 | > 250 | > 250 | 4.21 | 4.05 | pEC50 [5]: 5.22; pEC50 [6]: < 4.00
Nc1sc2c(c1C(=O)Nc1ccccn1)CCCCC2 |  |  |  | 4.46 | 
NC(=O)c1c(NC(=O)c2ccccc2F)sc2c1CCCCC2 |  |  |  | < 3.70 | 
NC(=O)c1ncn([C@@H]2O[C@H](CO)[C@@H](O)[C@H]2O)n1 [RIBAVIRIN] | > 250 | > 250 | 5.10 |  | pEC50 [7]: 4.92; pEC50 [8]: 4.96; pEC50 [9]: 5.22; pEC50 [10]: 5.15; pEC50 [5]: 5.70; pEC50 [6]: 4.82; pEC50 [11]: 5.22
